Values quoted from earlier work in US12138347B2, “Nanoparticles and nanonetworks formed therefrom” (University of Houston System, priority 2018, dated 2024).

Assays:
HL60 leukemia cells = details: p53 null cell line
K562 leukemia cells = details: p53 null cell line
[1] = test system: HT-29 colon carcinoma cells; details: p53 null cell line

SMILES: C[C@H]1CCC/C=C/[C@@H]2C[C@H](O)C[C@H]2[C@H](O)/C=C/C(=O)O1 [BFA, Brefeldin A]
- potency in HL60 leukemia cells (HL60 leukemia cells): high potency
- potency in K562 leukemia cells (K562 leukemia cells): high potency
- potency in HT-29 colon carcinoma cells [1]: high potency
- effect on efficacy of docetaxel (prostate cancer cells): enhances the efficacy
